Assay results published in US7772260B2, “Imidazo[2,1-b]-1,3,4-thiadiazole sulfonamides” (Aegera Therapeutics Inc., priority 2001, dated 2010).
Where a name gives a salt, the structure may show the parent alone.

Experiments:
SCG neurons [1] = experiment: Protection of SCG neurons from anti-NGF killing; assay type: cell-based, Sprague Dawley rats; details: Rattus norvegicus, Neuron, anti-NGF antibody, serum and NGF free 48 hours, Alamar Blue, +/−1 uM, read-out: IC(50), rescue from anti-NGF killing of SCG neurons
Description: Neurotrophins are critical to the growth, development, and survival of small fiber neurons of the PNS. SCG neurons are neurons of the PNS that undergo apoptosis upon NGF withdrawal. In a typical experiment SCG neurons are cultured in the presence of NGF, which induces survival and neurite out-growth. After 5 days the NGF is removed by either the addition of anti-NGF polyclonal antibody (Sigma) or by repeated washings (4 times) with NGF free media, resulting in the apoptosis of up to 90% of the neurons after 48 hours, as measured by MTS staining.
After 4 days the cells were treated with anti-NGF antibody (Sigma). At this time compound was added and the cells were maintained serum and NGF free for 48 hours, at which time viability was assessed using Alamar Blue (Medicorp) staining.

SCG neurons [2] = experiment: cells; assay type: cell-based, Sprague Dawley rats; details: Rattus norvegicus, Neuron; Taxol™ (50 ng/mL), viability 48 hours later, MTS; read-out: IC(50), protection of SCG neurons from Taxol killing
Description: Taxol™ is regularly used in breast cancer chemotherapy. In cancer cells Taxol™ binds to the cyto-skeletal protein tubulin, thereby inhibiting normal microtubular assembly and inducing cellular apoptosis. Despite its potency as an anti-tumour agent, Taxol™ is also toxic to neurons, inducing dose limiting peripheral neuropathies. The addition of Taxol™ (100 ng/mL) to cultured SCG neurons induces the degradation or loss of upwards of 80% of the neurons.
FIG. 1 illustrates the protection provided by compound 1 (referred to here as AEG3482) against Taxol™ induced killing. PI Sprague Dawley rat SCG neurons were cultured and incubated with NGF (50 ng/mL) for 5 days.

CA II = CA II (Homo sapiens, UniProt P00918); experiment: CA II inhibition; assay type: biochemical; details: read-out: IC(50), CA II inhibition
Description: CA II inhabition was measured using the protocol described by Pocker, Y.'Stone, J. Biochemistry 1967, 6, 668.

With `CC(C)c1ccc(Oc2ccc(-c3cn4nc(S(N)(=O)=O)sc4n3)cc2)cc1` [Compound 97, 6-(4-(4-iso-propylphenoxy)phenyl)imidazo[2,1-b]-1,3,4-thiadiazole-2-sulfonamide] the IC50 (SCG neurons [1]) was 7 µM.

`NS(=O)(=O)c1nn2cc(-c3ccccn3)nc2s1` [Compound 106, 6-(2-Pyridyl)imidazo[2,1-b]-1,3,4-thiadiazole-2-sulfonamide HCl] showed an IC50 (SCG neurons [1]) of 7 µM.

`NS(=O)(=O)c1nn2cc(-c3ccc4c(c3)OC3(CCCCC3)O4)nc2s1` [Compound 23, 6-(2-spiro(cyclohexyl)benzo-1,3-dioxol-5-yl)imidazo[2,1,-b]-1,3,4-thiadiazole-2-sulfonamide] gave an IC50 (SCG neurons [1]) of 25 µM.

For `NS(=O)(=O)c1nn2cc(-c3ccc(-c4ccc5c(c4)OCO5)cc3)nc2s1` [Compound 79], the IC50 (SCG neurons [1]) was 7 µM.

Work on `NS(=O)(=O)c1nn2cc(-c3ccc(Oc4ccc(F)cc4)cc3)nc2s1` [Compound 88] yielded an IC50 (SCG neurons [1]) of 10 µM.

With `COc1cccc(-c2ccc(-c3cn4nc(S(N)(=O)=O)sc4n3)cc2)c1` [Compound 149, 6-(3′-methoxybiphen-4-yl)imidazo[2,1-b]-1,3,4-thiadiazole-2-sulfonamide sodium salt] the IC50 (SCG neurons [1]; 48 h) was 7 µM.

Compound `NS(=O)(=O)c1nn2cc(-c3c(F)c(F)c(N4CCOCC4)c(F)c3F)nc2s1` [Compound 9, 6-(4-Morpholino-2,3,5,6-tetrafluorophenyl)imidazo[2,1-b]-1,3,4-thiadiazole-2-sulfonamide] has an IC50 (SCG neurons [1]) of 8 µM.

With `NS(=O)(=O)c1nn2cc(-c3ccc(-c4ccsc4)cc3)nc2s1` [Compound 85, 6-(thiophen-3-yl-phenyl)imidazo[2,1-b]-1,3,4-thiadiazole-2-sulfonamide] the IC50 (SCG neurons [1]) was > 30 µM.

`CN(C)c1cccc(Oc2ccc(-c3cn4nc(S(N)(=O)=O)sc4n3)cc2)c1` [Compound 96, 6-(3-dimethylaminophenoxyphenyl)imidazo[2,1-b]-1,3,4-thiadiazole-2-sulfonamide] showed an IC50 (SCG neurons [1]) of 20 µM.

With `COc1cc(-c2cn3nc(S(N)(=O)=O)sc3n2)ccc1OCCO` [Compound 34] the IC50 (SCG neurons [1]) was > 30 µM.

In the case of `NS(=O)(=O)c1nn2cc(-c3ccc(Oc4ccc(F)c(F)c4)cc3)nc2s1` [Compound 89, 6-(4-(3,4-difluorophenoxy)phenyl)imidazo[2,1-b]-1,3,4-thiadiazole-2-sulfonamide], the IC50 (SCG neurons [1]) is reported as 10 µM.

Work on `COc1cc(-c2cn3nc(S(N)(=O)=O)sc3n2)ccc1OCCCOCc1ccccc1` [Compound 36] yielded an IC50 (SCG neurons [1]) of 17 µM.

In the case of `COc1ccc(-c2cccc(-c3cn4nc(S(N)(=O)=O)sc4n3)c2)cc1` [Compound 86, 6-(4′methoxybiphen-3-yl)imidazo[2,1-b]-1,3,4-thiadiazole-2-sulfonamide], the IC50 (SCG neurons [1]) is reported as 17 µM.

For `NS(=O)(=O)c1nn2cc(-c3cccc(F)c3)nc2s1` [Compound 3, 6-(3-Fluorophenyl)imidazo[2,1-b]-1,3,4-thiadiazole-2-sulfonamide], the IC50 (SCG neurons [1]) was 10 µM.

In the case of `NS(=O)(=O)c1nn2cc(-c3ccccc3F)nc2s1` [Compound 2, 6-(2-Fluorophenyl)imidazo[2,1-b]-1,3,4-thiadiazole-2-sulfonamide], the IC50 (SCG neurons [1]) is reported as 20 µM.

`NS(=O)(=O)c1nn2cc(-c3c(F)c(F)c(F)c(F)c3F)nc2s1` [Compound 6, 6-(2,3,4,5,6-Pentafluorophenyl)imidazo[2,1-b]-1,3,4-thiadiazole-2-sulfonamide] showed an IC50 (SCG neurons [2]) of 3 µM and an IC50 (CA II) of 0.164 µM.

For `COc1cc(-c2cn3nc(S(N)(=O)=O)sc3n2)ccc1OCCOCc1ccccc1` [Compound 35], the IC50 (SCG neurons [1]) was > 30 µM.

With `NS(=O)(=O)c1nn2cc(-c3ccc(OC(F)(F)F)cc3)nc2s1` [Compound 25, 6-(4-trifloromethoxyphenyl)imidazo[2,1-b]-1,3,4-thiadiazole-2-sulfonamide] the IC50 (SCG neurons [2]) was 5 µM and the IC50 (CA II) was 0.302 µM.

Work on `COc1ccc(-c2cn3nc(S(N)(=O)=O)sc3n2)c(OC)c1` [Compound 19, 6-(2,4-Dimethoxyphenyl)imidazo[2,1-b]-1,3,4-thiadiazole-2-sulfonamide] yielded an IC50 (SCG neurons [2]) of 15 µM and an IC50 (CA II) of 0.373 µM.

Compound `NS(=O)(=O)c1nn2cc(-c3ccc(-c4cccc(C(F)(F)F)c4)cc3)nc2s1` [Compound 150, 6-(3′-trifluoromethylbiphen-4-yl)imidazo[2,1-b]-1,3,4-thiadiazole-2-sulfonamide sodium salt] has an IC50 (SCG neurons [1]; 48 h) of 7 µM.

For `NS(=O)(=O)c1nn2cc(-c3cccc(Br)c3)nc2s1` [Compound 13, 6-(3-bromophenyl)imidazo[2,1-b]-1,3,4-thiadiazole-2-sulfonamide], the IC50 (SCG neurons [2]) was 7 µM and the IC50 (CA II) was 4.05 µM.

Work on `CN(C)S(=O)(=O)c1nn2cc(-c3ccccc3)nc2s1` [Compound 139, 6-Phenyl-imidazo[2,1-b]-1,3,4-thiadiazole-2-N,N-dimethylsulfonamide] yielded an IC50 (SCG neurons [2]) of 10 µM and an IC50 (CA II) of 11.3 µM.

With `NS(=O)(=O)c1nn2cc(-c3ccc(O)c(O)c3)nc2s1` [Compound 22] the IC50 (SCG neurons [2]) was 25 µM and the IC50 (CA II) was 0.153 µM.

Work on `CCCCCc1ccc(-c2cn3nc(S(N)(=O)=O)sc3n2)cc1` [Compound 46, 6-(4-Pentylphenyl)imidazo[2,1-b]-1,3,4-thiadiazole-2-sulfonamide] yielded an IC50 (SCG neurons [2]) of 7 µM and an IC50 (CA II) of 0.601 µM.

For `N#Cc1cccc(-c2cn3nc(S(N)(=O)=O)sc3n2)c1` [Compound 41, 6-(3-cyanophenyl)imidazo[2,1-b]-1,3,4-thiadiazole-2-sulfonamide], the IC50 (SCG neurons [2]) was 3 µM and the IC50 (CA II) was 0.346 µM.

`NS(=O)(=O)c1nn2cc(-c3ccc(F)cc3)nc2s1` [Compound 4, 6-(4-Fluorophenyl)imidazo[2,1-b]-1,3,4-thiadiazole-2-sulfonamide] was tested, and the IC50 (SCG neurons [2]) was 5 µM and the IC50 (CA II) was 0.217 µM.

Work on `COc1ccccc1-c1cn2nc(S(N)(=O)=O)sc2n1` [Compound 15, 6-(2-Methoxyphenyl)imidazo[2,1-b]-1,3,4-thiadiazole-2-sulfonamide] yielded an IC50 (SCG neurons [2]) of 10 µM and an IC50 (CA II) of 0.152 µM.

For `NS(=O)(=O)c1nn2cc(-c3cccc(OC(F)(F)F)c3)nc2s1` [Compound 24, 6-(3-trifloromethoxyphenyl)imidazo[2,1-b]-1,3,4-thiadiazole-2-sulfonamide], the IC50 (SCG neurons [2]) was 7 µM and the IC50 (CA II) was 0.613 µM.

`NS(=O)(=O)c1nn2cc(-c3ccc(Oc4cccc(Br)c4)cc3)nc2s1` [Compound 94, 6-(3-bromophenoxyphenyl)imidazo[2,1-b]-1,3,4-thiadiazole-2-sulfonamide] was tested, and the IC50 (SCG neurons [1]) was 10 µM.

`N#Cc1ccc(-c2cn3nc(S(N)(=O)=O)sc3n2)cc1` [Compound 42, 6-(4-cyanophenyl)imidazo[2,1-b]-1,3,4-thiadiazole-2-sulfonamide] was tested, and the IC50 (SCG neurons [2]) was 3 µM and the IC50 (CA II) was 0.272 µM.

`NS(=O)(=O)c1nn2cc(-c3ccc(-c4cccs4)cc3)nc2s1` [Compound 84, 6-(thiophen-2-yl-phenyl)imidazo[2,1-b]-1,3,4-thiadiazole-2-sulfonamide] was tested, and the IC50 (SCG neurons [1]) was > 30 µM.

`COc1ccc(Oc2ccc(-c3cn4nc(S(N)(=O)=O)sc4n3)cc2)cc1` [Compound 98, 6-(4-(4-methoxyphenoxy)phenyl)imidazo[2,1-b]-1,3,4-thiadiazole-2-sulfonamide] was tested, and the IC50 (SCG neurons [1]) was 17 µM.

For `NS(=O)(=O)c1nn2cc(-c3ccc(Oc4ccc(Cl)c(Cl)c4)cc3)nc2s1` [Compound 92, 6-(3,4-dichlorophenoxyphenyl)imidazo[2,1-b]-1,3,4-thiadiazole-2-sulfonamide], the IC50 (SCG neurons [1]) was 7 µM.

With `NS(=O)(=O)c1nn2cc(-c3ccc(Oc4ccc(Cl)cc4)cc3)nc2s1` [Compound 91, 6-(4-chlorophenoxyphenyl)imidazo[2,1-b]-1,3,4-thiadiazole-2-sulfonamide] the IC50 (SCG neurons [1]) was 7 µM.

`CC(C)(C)c1ccc(-c2cn3nc(S(N)(=O)=O)sc3n2)cc1` [Compound 49, 6-(4-tert-butylphenyl)imidazo[2,1-b]-1,3,4-thiadiazole-2-sulfonamide] was tested, and the IC50 (SCG neurons [2]) was 5 µM and the IC50 (CA II) was 0.466 µM.

Compound `NS(=O)(=O)c1nn2cc(-c3ccc(Cl)c(Cl)c3)nc2s1` [Compound 11, 6-(3,4-Dichlorophenyl)imidazo[2,1-b]-1,3,4-thiadiazole-2-sulfonamide] has an IC50 (SCG neurons [2]) of 3 µM and an IC50 (CA II) of 1.8 µM.

`NS(=O)(=O)c1nn2cc(-c3ccc(Cl)c([N+](=O)[O-])c3)nc2s1` [Compound 38, 6-(3-nitro-4-chlorophenyl)imidazo[2,1-b]-1,3,4-thiadiazole-2-sulfonamide] was tested, and the IC50 (SCG neurons [2]) was 3 µM and the IC50 (CA II) was 0.577 µM.

`Cc1ccc(-c2cn3nc(S(N)(=O)=O)sc3n2)c(C)c1` [Compound 48, 6-(2,4-dimethylphenyl)imidazo[2,1-b]-1,3,4-thiadiazole-2-sulfonamide] gave an IC50 (SCG neurons [2]) of 5 µM and an IC50 (CA II) of 0.288 µM.

`CC(C)(C)c1cc(-c2cn3nc(S(N)(=O)=O)sc3n2)c2c(c1)C(C)(C)CC2` [Compound 50] showed an IC50 (SCG neurons [2]) of 7 µM and an IC50 (CA II) of 0.938 µM.

With `Cc1ccc(-c2cn3nc(S(N)(=O)=O)sc3n2)cc1` [Compound 47, 6-(4-Methylphenyl)imidazo[2,1-b]-1,3,4-thiadiazole-2-sulfonamide] the IC50 (SCG neurons [2]) was 6 µM and the IC50 (CA II) was 0.361 µM.

`NS(=O)(=O)c1nn2cc(-c3ccc(Br)cc3)nc2s1` [Compound 14, 6-(4-Bromophenyl)-imidazo[2,1-b]-1,3,4-thiadiazole-2-sulfonamide] showed an IC50 (SCG neurons [2]) of 5 µM and an IC50 (CA II) of 0.198 µM.
